According to PMC8044163, “Vitamin D and lumisterol derivatives can act on liver X receptors (LXRs)” (Scientific Reports, 2021):

Tested on: murine dermal fibroblasts
Experiment: RNA-Seq of newborn murine dermal fibroblasts
Assay type: cell-based, mouse
Conditions: 10^−7 M, 24 h

C=C1CCC(O)CC1=CC=C1CCCC2(C)C1CCC2C(C)(O)CC(O)CC(C)C (centres unmarked) [20,23(OH)2D3]
Adh7 expression level: 1.158
Adh7 log2(fold_change) vs control: 2.167
Aqp11 expression level: 0.9828
Aqp11 log2(fold_change) vs control: 2.131
Arid3b expression level: 0.2183
Arid3b log2(fold_change) vs control: -3.968
Bicd1 expression level: 0.8132
Bicd1 log2(fold_change) vs control: -1.4
Btc expression level: 0.8829
Btc log2(fold_change) vs control: 1.8593
Car9 expression level: 2.126
Car9 log2(fold_change) vs control: -2.151
Cbs expression level: 0.2841
Cbs log2(fold_change) vs control: -2.782
Ccl4 expression level: 0.1702
Ccl4 log2(fold_change) vs control: -2.322
Cd68 expression level: 3.478
Cd68 log2(fold_change) vs control: 1.602
Cd200 expression level: 0.493
Cd200 log2(fold_change) vs control: -1.526
Cherp expression level: 31.4407
Cherp log2(fold_change) vs control: -2.561
Clec2g expression level: 0
Clec2g log2(fold_change) vs control: -inf
Cnnm4 expression level: 3.148
Cnnm4 log2(fold_change) vs control: -4.001
Cox15 expression level: 16.947
Cox15 log2(fold_change) vs control: 1.531
Cpa2 expression level: 0.3137
Cpa2 log2(fold_change) vs control: -2.329
Ctrl expression level: 0.115
Ctrl log2(fold_change) vs control: -3.153
Dcun1d1 expression level: 4.486
Dcun1d1 log2(fold_change) vs control: -1.564
Defb42 expression level: 0.09112
Defb42 log2(fold_change) vs control: -3.331
Dtx1 expression level: 0.6816
Dtx1 log2(fold_change) vs control: -1.292
Ehf expression level: 0.1594
Ehf log2(fold_change) vs control: -2.391
Ercc2 expression level: 13.0262
Ercc2 log2(fold_change) vs control: -3.709
Erh expression level: 2.145
Erh log2(fold_change) vs control: -1.557
Fmnl1 expression level: 0.08875
Fmnl1 log2(fold_change) vs control: -3.4
Gys2 expression level: 0
Gys2 log2(fold_change) vs control: -inf
Hist1h2ab expression level: 1.7305
Hist1h2ab log2(fold_change) vs control: 2.585
Hist1h2bg expression level: 0.5684
Hist1h2bg log2(fold_change) vs control: -2
Hist1h2bh expression level: 0
Hist1h2bh log2(fold_change) vs control: -inf
Hist1h4c expression level: 0
Hist1h4c log2(fold_change) vs control: -inf
Isl1 expression level: 0.3239
Isl1 log2(fold_change) vs control: -1.316
Krt19 expression level: 10.8799
Krt19 log2(fold_change) vs control: 1.0982
Larp1b expression level: 3.399
Larp1b log2(fold_change) vs control: -2.948
Lhx6 expression level: 2.278
Lhx6 log2(fold_change) vs control: -2.362
Lsm5 expression level: 1.07
Lsm5 log2(fold_change) vs control: -1.322
M1ap expression level: 1.3491
M1ap log2(fold_change) vs control: 1.119
Med9os expression level: 0.7965
Med9os log2(fold_change) vs control: -1.386
Nckipsd expression level: 11.1997
Nckipsd log2(fold_change) vs control: 1.42
Nr3c2 expression level: 0.3025
Nr3c2 log2(fold_change) vs control: -1.869
Nr6a1 expression level: 0.323
Nr6a1 log2(fold_change) vs control: -2.52
Ntrk3 expression level: 0.007819
Ntrk3 log2(fold_change) vs control: -7.899
Parvg expression level: 0.4359
Parvg log2(fold_change) vs control: -1.7705
Pde4dip expression level: 25.3974
Pde4dip log2(fold_change) vs control: -7.279
Psd4 expression level: 0.1525
Psd4 log2(fold_change) vs control: -3.368
Ptpa expression level: 177.146
Ptpa log2(fold_change) vs control: 1.413
Ptpn6 expression level: 0.3394
Ptpn6 log2(fold_change) vs control: -5.148
Rnu3a expression level: 0
Rnu3a log2(fold_change) vs control: -inf
Rpph1 expression level: 0.6606
Rpph1 log2(fold_change) vs control: -1
Rsad1 expression level: 1.045
Rsad1 log2(fold_change) vs control: -1.592
Saa1 expression level: 0
Saa1 log2(fold_change) vs control: -inf
Samd12 expression level: 1.71
Samd12 log2(fold_change) vs control: -1.081
Scn8a expression level: 0.1177
Scn8a log2(fold_change) vs control: -2.776
Sgca expression level: 0.3824
Sgca log2(fold_change) vs control: -1.697
Slc15a4 expression level: 15.7859
Slc15a4 log2(fold_change) vs control: -1.861
Slc16a5 expression level: 0.2329
Slc16a5 log2(fold_change) vs control: -1.992
Snhg9 expression level: 7.505
Snhg9 log2(fold_change) vs control: -1.322
St7 expression level: 25.5959
St7 log2(fold_change) vs control: -1.436
Stmn1 expression level: 6.591
Stmn1 log2(fold_change) vs control: 2.0805
Susd1 expression level: 1.936
Susd1 log2(fold_change) vs control: 1.474
Syt8 expression level: 0.7109
Syt8 log2(fold_change) vs control: -2.1726
Syt12 expression level: 0.9907
Syt12 log2(fold_change) vs control: -2.055
Tldc2 expression level: 0.1921
Tldc2 log2(fold_change) vs control: -2.216
Tnnc2 expression level: 0.313
Tnnc2 log2(fold_change) vs control: -1.361
Unc5c expression level: 0.1434
Unc5c log2(fold_change) vs control: -2.931
Wdr17 expression level: 1.106
Wdr17 log2(fold_change) vs control: -1.028
Zbtb18 expression level: 4.966
Zbtb18 log2(fold_change) vs control: -3.168
Zfp618 expression level: 1.583
Zfp618 log2(fold_change) vs control: -1.597
number of genes downregulated, FC ≥ 2: 540
number of genes upregulated, FC ≥ 2: 437
number of genes solely downregulated (FC ≥ 2): 116 (11%)
number of genes solely upregulated (FC ≥ 2): 193 (12.8%)
